In ChEMBL document CHEMBL4270506, “Recent advances in drug discovery of phototherapeutic non-porphyrinic anticancer agents” (Eur J Med Chem, 2017):

Assays:
SK-OV-3 = assay: Phototoxicity in human SKOV3 cells assessed as reduction in cell viability in presence of irradiation with green lED light at 25.2 J/cm2 for 2 hrs followed by incubation in dark for 24 hrs by MTT assay; format: functional, cell-based; details: SK-OV-3, light or radiation study
[1] = Dark toxicity in mouse DLA cells assessed as inhibition of cell viability by trypan blue dye exclusion method; format: cell-based; details: read-out: INH
[2] = Phototoxicity in mouse DLA cells assessed as inhibition of cell viability illuminated for 10 mins at total dose of 46 J/cm2 irradiation by trypan blue dye exclusion method; format: functional
[3] = Dark toxicity in human […] cells assessed as cell viability at 50 ug/ml by CCK8 assay; format: cell-based; details: read-out: Activity
[4] = Phototoxicity in human […] cells assessed as cell viability at 5 ug/ml under irradiation at 532 nm by CCK8 assay; format: functional; details: light or radiation study, read-out: Activity
[5] = Dark toxicity in human A431 cells assessed as reduction in cell viability after 72 hrs by MTT assay; format: cell-based, A-431
[6] = Dark toxicity in human K562 cells assessed as reduction in cell viability after 72 hrs by MTT assay; format: cell-based
[7] = Dark toxicity in human Jurkat cells assessed as reduction in cell viability after 72 hrs by MTT assay; format: cell-based
A-431 = assay: Phototoxicity in human A431 cells assessed as cell viability at 2 to 8 umol/L pre-incubated for 30 mins before irradiation at 365 nm at 3.75 J/cm2 and measured after 72 hrs by MTT assay; format: functional; details: A-431, light or radiation study
Jurkat = assay: Phototoxicity in human Jurkat cells assessed as cell viability at 2 to 8 umol/L pre-incubated for 30 mins before irradiation at 365 nm at 3.75 J/cm2 and measured after 72 hrs by MTT assay; format: functional; details: light or radiation study
K562 = assay: Phototoxicity in human K562 cells assessed as cell viability at 2 to 8 umol/L pre-incubated for 30 mins before irradiation at 365 nm at 3.75 J/cm2 and measured after 72 hrs by MTT assay; format: functional; details: K562, light or radiation study
[8] = Dark toxicity in human LoVo cells assessed as reduction in cell viability after 72 hrs by MTT assay; format: cell-based
LoVo = assay: Phototoxicity in human LoVo cells assessed as cell viability at 2 to 8 umol/L pre-incubated for 30 mins before irradiation at 365 nm at 3.75 J/cm2 and measured after 72 hrs by MTT assay; format: functional; details: light or radiation study
[9] = Lipophilicity, log P of the compound; format: physicochemical; details: octanol/water
[10] = Phototoxicity in human […] cells assessed as cell viability at 10 ug/ml under irradiation at 457 nm at 20 J/cm2 by CCK8 assay; format: functional; details: light or radiation study, read-out: Activity
[11] = Dark toxicity in human […] cells assessed as cell viability at 10 ug/ml by CCK8 assay; format: cell-based; details: read-out: Activity
BXPC-3 [12] = assay: Phototoxicity in human BxPC3 cells assessed as inhibition of cell growth at 12.5 uM pre-incubated for 3 hrs before irradiation with 780 nm light for 1 mins and measured after 24 hrs by MTT assay; format: functional; details: BXPC-3, light or radiation study, read-out: GI
MIA PaCa-2 [13] = assay: Phototoxicity in human MIAPaCa2 cells assessed as inhibition of cell growth at 6.25 uM pre-incubated for 3 hrs before irradiation with 780 nm light for 1 mins and measured after 24 hrs by MTT assay; format: functional; details: MIA PaCa-2, light or radiation study, read-out: GI
BXPC-3 [14] = assay: Phototoxicity in human BxPC3 cells assessed as inhibition of cell growth at 25 uM pre-incubated for 3 hrs before irradiation with 780 nm light for 1 mins and measured after 24 hrs by MTT assay; format: functional; details: BXPC-3, light or radiation study, read-out: GI
[15] = Dark toxicity in human MIAPaCa2 cells assessed as inhibition of cell growth at 6.25 to 25 uM incubated for 24 hrs by MTT assay; format: cell-based, MIA PaCa-2; details: read-out: GI
[16] = Dark toxicity in human BxPC3 cells assessed as inhibition of cell growth at 6.25 to 25 uM incubated for 24 hrs by MTT assay; format: cell-based, BXPC-3; details: read-out: GI
MIA PaCa-2 [17] = assay: Phototoxicity in human MIAPaCa2 cells assessed as inhibition of cell growth at 12.5 uM pre-incubated for 3 hrs before irradiation with 780 nm light for 1 mins and measured after 24 hrs by MTT assay; format: functional; details: MIA PaCa-2, light or radiation study, read-out: GI
BXPC-3 [18] = assay: Phototoxicity in human BxPC3 cells assessed as inhibition of cell growth at 6.25 uM pre-incubated for 3 hrs before irradiation with 780 nm light for 1 mins and measured after 24 hrs by MTT assay; format: functional; details: BXPC-3, light or radiation study, read-out: GI
MIA PaCa-2 [19] = assay: Phototoxicity in human MIAPaCa2 cells assessed as inhibition of cell growth at 25 uM pre-incubated for 3 hrs before irradiation with 780 nm light for 1 mins and measured after 24 hrs by MTT assay; format: functional; details: MIA PaCa-2, light or radiation study, read-out: GI

## CC1=C(I)C(C)=[N+]2C1=Cc1c(C)c(I)c(C)n1[B-]2(F)F
SK-OV-3
  EC50: 28.8 nM

## CC(C)c1ccc(C2=C([O-])/C(=C\c3sc4cc(I)ccc4[n+]3CCCCS(=O)(=O)O)C2=O)cc1
[1]
  cytotoxicity: < 10%
[2]
  inhibition (INH): 80%

## CCN(CC)c1ccc(/C=C2\CC/C(=C\c3ccc(N(CCC(=O)O)CCC(=O)O)cc3)C2=O)cc1
[3]
  viability at 50 ug/ml: > 70%
[4]
  viability at 5 µg/mL: > 80%

## CCOC(=O)c1cc2c(n1Cc1ccc(C)cc1)-c1nc(N)ncc1CC2
[5]
  GI50 at 72 h: > 20000 nM
[6]
  GI50 at 72 h: > 20000 nM
[7]
  GI50 at 72 h: > 20000 nM
A-431
  GI50: 260 nM
Jurkat
  GI50: 230 nM
K562
  GI50: 410 nM
[8]
  GI50 at 72 h: > 20000 nM
LoVo
  GI50: 340 nM

## COCCOCCOCCOCCN(CCOCCOCCOCCOC)c1ccc(/C=C2\CC/C(=C\c3ccc(N(CCOCCOCCOCCOC)CCOCCOCCOCCOC)cc3)C2=O)cc1
[9]
  logP: 2.32 to 3.04
[10]
  viability at 10 µg/mL: > 60%
[11]
  viability at 10 ug/ml: > 80%

## CC1(C)C(/C=C/C2=C(Cl)C(=C/C=C3/N(CCCCS(=O)(=O)O)c4cc(I)cc(I)c4C3(C)C)/CCC2)=[N+](CCCCS(=O)(=O)O)c2cc(I)cc(I)c21
BXPC-3 [12]
  inhibition of growth at 12.5 µM: > 20%
MIA PaCa-2 [13]
  inhibition of growth at 6.25 µM: 20%
BXPC-3 [14]
  inhibition of growth at 25 µM: 40%
[15]
  inhibition at 24 h, up to 25 µM: 0%
[16]
  inhibition at 24 h, up to 25 µM: 0%
MIA PaCa-2 [17]
  inhibition of growth at 12.5 µM: > 40%
BXPC-3 [18]
  inhibition of growth at 6.25 µM: > 10%
MIA PaCa-2 [19]
  inhibition of growth at 25 µM: 70%

## CN(CCC(=O)O)c1ccc(/C=C2\CC/C(=C\c3ccc(N(C)CCC(=O)O)cc3)C2=O)cc1
[3]
  viability at 50 ug/ml: > 70%
[4]
  viability at 5 µg/mL: > 80%

## CCN1/C(=C\C2=C([O-])C(=C\c3sc4cc(I)ccc4[n+]3CCCCS(=O)(=O)O)/C2=O)Sc2ccccc21
[1]
  cytotoxicity: < 10%
[2]
  inhibition (INH): 95 - 100%

## CCOC(=O)c1cc2c(n1C)-c1nc(N)ncc1CC2
[5]
  GI50 at 72 h: > 20000 nM
[6]
  GI50 at 72 h: > 20000 nM
[7]
  GI50 at 72 h: > 20000 nM
A-431
  GI50: > 20000 nM
Jurkat
  GI50: 8420 nM
K562
  GI50: > 20000 nM
[8]
  GI50 at 72 h: > 20000 nM
LoVo
  GI50: > 20000 nM

## COCCOCCOCCOCCN(C)c1ccc(/C=C2\CC/C(=C\c3ccc(N(C)CCOCCOCCOCCOC)cc3)C2=O)cc1
[9]
  logP: 2.32 to 3.04
[10]
  viability at 10 µg/mL: < 10%
[11]
  viability at 10 ug/ml: > 80%

## CC1=C(I)C(C)=[N+]2C1=C(c1c(Cl)cccc1Cl)c1c(C)c(I)c(C)n1[B-]2(F)F
SK-OV-3
  EC50: 0.77 nM

## CCN(CC)c1ccc(/C=C2\CC/C(=C\c3ccc(N(C)CCC(=O)O)cc3)C2=O)cc1
[3]
  viability at 50 ug/ml: < 30%
[4]
  viability at 5 µg/mL: < 10%

## CCOC(=O)c1cc2c(n1Cc1ccccc1)-c1nc(N)ncc1CC2
[5]
  GI50 at 72 h: > 20000 nM
[6]
  GI50 at 72 h: > 20000 nM
[7]
  GI50 at 72 h: 14000 nM
A-431
  GI50: 390 nM
Jurkat
  GI50: 210 nM
K562
  GI50: 480 nM
[8]
  GI50 at 72 h: 14200 nM
LoVo
  GI50: 440 nM

## CC1=C(I)C(C)=[N+]2C1=C(c1ccc([N+](=O)[O-])cc1)c1c(C)c(I)c(C)n1[B-]2(F)F
SK-OV-3
  EC50: 2.01 nM

## CCN(CC)c1ccc(/C=C2\CC/C(=C\c3ccc(N(CCOCCOCCOCCOC)CCOCCOCCOCCOC)cc3)C2=O)cc1
[9]
  logP: 2.32 to 3.04
[10]
  viability at 10 µg/mL: 10%
[11]
  viability at 10 ug/ml: > 80%

## CCOC(=O)c1cc2c(n1C)-c1[nH]c(=O)ncc1CC2
[5]
  GI50 at 72 h: > 20000 nM
[6]
  GI50 at 72 h: > 20000 nM
[7]
  GI50 at 72 h: 6000 nM
A-431
  GI50: 2450 nM
Jurkat
  GI50: 1080 nM
K562
  GI50: 2920 nM
[8]
  GI50 at 72 h: > 20000 nM
LoVo
  GI50: 2300 nM

## O=C1C(/C=C2/Sc3cc(I)ccc3N2CCCCS(=O)(=O)O)=C([O-])C/1=C\c1sc2cc(I)ccc2[n+]1CCCCS(=O)(=O)O
[1]
  cytotoxicity: < 10%
[2]
  inhibition (INH): 95 - 100%

## COc1ccc(C2=C3C(C)=C(I)C(C)=[N+]3[B-](F)(F)n3c(C)c(I)c(C)c32)cc1
SK-OV-3
  EC50: 0.65 nM

## Cn1ccc2c1-c1[nH]c(=O)ncc1CC2
[5]
  GI50 at 72 h: > 20000 nM
[6]
  GI50 at 72 h: > 20000 nM
[7]
  GI50 at 72 h: > 20000 nM
A-431
  GI50: > 20000 nM
Jurkat
  GI50: > 20000 nM
K562
  GI50: > 20000 nM
[8]
  GI50 at 72 h: > 20000 nM
LoVo
  GI50: > 20000 nM

## COCCOCCOCCN(CCOCCOCCOC)c1ccc(/C=C2\CC/C(=C\c3ccc(N(CCOCCOCCOC)CCOCCOCCOC)cc3)C2=O)cc1
[9]
  logP: 2.32 to 3.04
[10]
  viability at 10 µg/mL: 60%
[11]
  viability at 10 ug/ml: > 80%

## CC1(C)C(/C=C/C2=C(Cl)C(=C/C=C3/N(CCCCS(=O)(=O)O)c4ccc(I)cc4C3(C)C)/CCC2)=[N+](CCCCS(=O)(=O)O)c2ccc(I)cc21
BXPC-3 [12]
  inhibition of growth at 12.5 µM: > 20%
MIA PaCa-2 [13]
  inhibition of growth at 6.25 µM: 30%
BXPC-3 [14]
  inhibition of growth at 25 µM: 40%
[15]
  inhibition at 24 h, up to 25 µM: 0%
[16]
  inhibition at 24 h, up to 25 µM: 0%
MIA PaCa-2 [17]
  inhibition of growth at 12.5 µM: > 60%
BXPC-3 [18]
  inhibition of growth at 6.25 µM: > 10%
MIA PaCa-2 [19]
  inhibition of growth at 25 µM: > 80%

## O=C(O)CCN(CCC(=O)O)c1ccc(/C=C2\CC/C(=C\c3ccc(N(CCC(=O)O)CCC(=O)O)cc3)C2=O)cc1
[3]
  viability at 50 ug/ml: > 70%
[4]
  viability at 5 µg/mL: > 80%

## CC1=C(I)C(C)=[N+]2C1=C(c1ccncc1)c1c(C)c(I)c(C)n1[B-]2(F)F
SK-OV-3
  EC50: 1.29 nM

## CC1(C)C(/C=C/C=C/C=C/C=C2\N(CCCCS(=O)(=O)O)c3ccc4ccccc4c3C2(C)C)=[N+](CCCCS(=O)(=O)[O-])c2ccc3ccccc3c21 [INDOCYANINE GREEN]
BXPC-3 [12]
  inhibition of growth at 12.5 µM: 0%
MIA PaCa-2 [13]
  inhibition of growth at 6.25 µM: 0%
BXPC-3 [14]
  inhibition of growth at 25 µM: 0%
[15]
  inhibition at 24 h, up to 25 µM: 0%
[16]
  inhibition at 24 h, up to 25 µM: 0%
MIA PaCa-2 [17]
  inhibition of growth at 12.5 µM: 0%
BXPC-3 [18]
  inhibition of growth at 6.25 µM: 0%
MIA PaCa-2 [19]
  inhibition of growth at 25 µM: 0%
